The values that follow come from a melting point compilation (Tetko et al.; mined from patent text by program, amines drawn as free bases though some values may be those of a salt).

For orientation: melting point means the temperature, or range, at which the solid turns liquid.

As to `CCc1nn(-c2cc(NC(C)=O)ccc2Cl)c(=O)n1Cc1ccc(-c2ccccc2S(=O)(=O)NC(=O)OC(C)(C)C)cc1F`, the melting point fell in the range of 158 to 160 °C.

Regarding `CCOC(=O)C(C)(C)Oc1ccc(-c2ccc(CCNC(C)=O)cc2)cc1`, the melting point was less than 20 °C.

Consider `COc1ccc2c(c1)c(CC(=O)NO)c(C)n2C(=O)c1ccc(Cl)cc1`, for which the melting point was in the range of 181 to 183 °C.

In turn, `CCN(CC)C(=O)c1c(-c2ccccc2)ccc2cc(-c3ccc(OC)cc3)ccc12` came in with a melting point of 147 to 148 °C.

In turn, `CCCN(CCC)C(=O)/C=C/CSc1nc(N)cc(Cl)n1` displayed a melting point of 139 to 142 °C.

Consider `C#CCNC(=O)c1ncn2c1CN(C)C(=O)c1ccccc1-2`, for which the melting point lay within 213 to 215 °C.

The compound `O=C(Nc1cccc(Cl)c1)N[C@H]1C[C@H](C(=O)O)Nc2cc(Cl)cc(Cl)c21` (relative stereo) registered a melting point of 173 to 175 °C.

`CS(=O)(=O)Nc1c(O)ccc2c1CCCC2C1=NCCN1` (stereo not drawn) came in with a melting point of 263 to 265 °C.

`NC(=O)c1[nH]cnc1OC(=O)c1ccc(Cl)cc1` came in with a melting point of 220 °C.

As for `N#CCCCCn1c(=O)c2ccccc2n(CCCCN2CCC(OC(c3ccccc3)c3ccccc3)CC2)c1=O`, the melting point was in the range of 119 to 121 °C.

As to `CCOC(=O)N1CCN(CCNc2ncnc3c2sc2nc(N4CCCC4)c4c(c23)CC(C)(C)CC4)CC1`, the melting point is 76.2 to 77.8 °C.

Compound `CCCCC(=O)c1cc2oc(C(=O)O)cc2c(C)c1C` gave a melting point of 188 to 189 °C.

The compound `CC(C)(C)c1csc(NC(=O)c2ccn3c(=O)c(/C=C/C(=O)O)c(N4CCC(O)CC4)nc3c2)n1` registered a melting point of 215 to 218 °C.

`O=C(c1ccc(-n2ccnc2)cc1)N1CCN(S(=O)(=O)c2ccc3cc(Br)ccc3c2)CC1` registered a melting point of 207 to 209 °C.

`CCOC(=O)N1CCc2nc3cc(C)ccc3c(C)c2CC1` showed a melting point of 121 °C.

`Cc1ccc(-c2[nH]c(-c3ccc([N+](=O)[O-])cc3)nc2C(=O)Nc2nccs2)cc1`: the melting point lay in the range of 256 to 258 °C.

Consider `CC(C)n1nc(-c2sc(Nc3cccc4ccccc34)nc2-c2ccccc2)ccc1=O`, for which the melting point lay within 239 to 240 °C.

In turn, `O=C(Nc1ccc(Cl)c(C(=O)Nc2ccccc2)c1O)Nc1cccc(Cl)c1Cl` had a melting point of 244 to 245 °C.

As to `O=C(NCc1cccnc1)Nc1cc(N2CC(c3ccccc3)CC2=O)ccn1` (stereo not drawn), the melting point was in the range of 179 to 180 °C.

The compound `COc1ccc(CCN(C)C)c2nn[nH]c12` returned a melting point of 176 to 180 °C.

On to `CCn1cnc(C(N)=O)c1NC(=S)NC(=O)c1ccccc1`, for which the melting point lay in the range of 178 to 180 °C.

In turn, `C[C@@H](n1ncn(-c2ccc(-n3nccn3)cc2)c1=O)[C@](O)(Cn1cncn1)c1ccc(F)cc1F` showed a melting point of 213 to 215 °C.

In the case of `N#Cc1cc(Oc2ccc(Cl)c(Cl)c2)cnc1Cl`, the melting point lay in the range of 76 to 78 °C.

The compound `CN1C(=O)C2(CCN(Cc3ccccc3)CC2)N=C(c2ccccc2)c2cc(Cl)ccc21` registered a melting point of 169 to 170 °C.

The compound `O=C(NCCCCCCCCc1ccccc1)c1cc(-c2cccc(Cl)c2)c(OCCO)c(-c2cccc(Cl)c2)c1` came in with a melting point of 165 to 167 °C.

In turn, `Cn1nnc2ccc(C(c3cccs3)n3ccnc3)cc21` (stereo not drawn) displayed a melting point of 157 °C.

In turn, `NS(=O)(=O)c1c(Cl)nc2ccc(C3CC3)nn12` returned a melting point of 194 to 196 °C.

Consider `Cc1cc2c(cc1O)C(C)(C)CC2`, for which the melting point fell in the range of 70 to 71 °C.

In turn, `COC1=C(OC)C(=O)C2=C(CC(CCCCOc3ccc(CO)cc3)C2)C1=O` yielded a melting point of 72 to 75 °C.

In turn, `COC(=O)c1cccc(-c2nc(-c3cccc(OC(F)(F)F)c3)cs2)c1` gave a melting point of 84 to 85 °C.

Compound `COC(=O)C(=C/c1cc(OC)c(OC)c(OC)c1)/C(C(N)=O)=C(/C)c1ccccc1` yielded a melting point of 141 to 143 °C.

With `CC(=O)NC(=Cc1ccc(F)cc1)C(=O)OCCC(F)=C(F)F`, the melting point is 116 °C.

The compound `CCOC(=O)CC(C(=O)OCC)N1CCN(CC2CN(c3ccc(C(=N)NC(=O)c4ccccc4)cc3)C(=O)O2)CC1` (stereo not drawn) came in with a melting point of 136 °C.

Compound `CC(C)(Sc1cccc(OCc2ccc(-c3ccc([N+](=O)[O-])cc3)o2)c1)C(=O)O` had a melting point of 137 to 138 °C.

In turn, `O=C1NC(=O)c2c1c(-c1ccccc1Cl)cc1c2cc(C(=O)O)n1CCCBr` displayed a melting point of 294 to 295 °C.

In turn, `CS(=O)(=O)NCCCCn1c(CCO)nc2c(N)nc3ccccc3c21` returned a melting point of 206 to 208 °C.

Consider `Cc1ccc(N2CCOCC2)c(N=C=S)c1`, for which the melting point lay within 91 to 92 °C.

`COc1ccc([N+](=O)[O-])c(C(=O)O)c1OC` displayed a melting point of 187 to 189 °C.

In the case of `COc1ccc(-c2cc(C(Cl)Cl)nn2-c2ccc(S(N)(=O)=O)cc2)cc1F`, the melting point lay within 190 to 193 °C.

For `O=C(O)CCCNC(=O)CCCNC(=O)c1cc(Br)no1`, the melting point is 157 to 158 °C.

In turn, `Clc1ccc(Nc2nnc(-c3cccc(Oc4ccc(Cl)c(Cl)c4)c3)s2)cc1Cl` gave a melting point of 189 to 190 °C.

The compound `COC(=O)c1cc(S(C)(=O)=O)ccc1OC1CCOC1=O` (stereo not drawn) returned a melting point of 102 to 105 °C.

The compound `CCOC(=O)c1cn(-c2ccc(C(F)(F)F)cn2)nc1C(C)C` displayed a melting point of 94 to 95 °C.

As to `CC(O)c1cccc(C=Cc2ccc3cc(F)ccc3n2)c1` (stereo not drawn), the melting point was in the range of 107 to 109 °C.

Take `CN1CC(C(=O)c2ccc(Cc3ccc(F)cc3)o2)=C(O)C1=O`: the melting point lay within 141 to 143 °C.

In turn, `CC(=O)N1CC(C)(C)c2c1cc(C)c(O)c2C` returned a melting point of 173 to 174 °C.

`COc1cc(-c2cn3cccnc3n2)ccc1O` had a melting point of 230 to 233 °C.

`CSc1ccc(NC#N)c(-c2ccccc2)c1` displayed a melting point of 85 °C.

`Cn1c(=O)c(C(=O)O)c(-c2ccccc2Cl)c2cc(Cl)ccc21` registered a melting point of 197 to 198 °C.

`N/C(=C1/Sc2ccccc2C1=O)c1ccccc1F` showed a melting point of 156 to 158 °C.

The compound `CN1CCCC1=Nc1ncnc2c1ncn2C1=CC(=O)CC1` gave a melting point of 200 to 205 °C.

On to `COc1ncc(Cl)cc1C1(O)CCN(CC23CC(c4ccccc42)c2ccccc23)CC1`, for which the melting point is 195 °C.

With `COc1ccc(-c2csc(N)n2)cc1`, the melting point is 194 to 205 °C.

`CCOP(=O)(Cc1cccc(-c2nc(=O)c3ccccc3s2)n1)OCC` had a melting point of 116 °C.

In the case of `CN=C1N(c2c(C)cccc2C)CCN1c1c(C)cccc1C`, the melting point lay in the range of 180 to 181 °C.

`CCOCC1COc2cc3c(O)c(C(=O)OCC)cnc3cc2O1` (stereo not drawn) came in with a melting point of 266 to 268 °C.

`Oc1cnccc1CCCOc1cccnc1Oc1cc(Cl)cc(Cl)c1` came in with a melting point of 99 to 101 °C.

`COc1ccc2[nH]c(C(F)(F)F)c(C#N)c2c1`: the melting point lay in the range of 189 to 190 °C.

Turning to `CN1CCN(C2=Nc3cc(Cl)cc4ccn(c34)-c3ccccc32)CC1`, the melting point is 184 to 186 °C.

For the compound `CC(=O)NC(CO)C(=O)c1ccccc1` (stereo not drawn), the melting point lay in the range of 115 to 117 °C.

In turn, `CC1=CC2=C(N3CN(N4CCOCC4)C=C3N=N2)N(c2ccccc2Cl)C1` had a melting point of 251 to 254 °C.

`N#CC(=C(Nc1ccc2c(c1)OCO2)NC1CCC1)S(=O)(=O)c1ccc(Cl)cc1` displayed a melting point of 190 °C.

Take `CCn1ncc2c1ncc1c(OCCC(C)C)nc3cc(C)nn3c12`: the melting point was 60 to 62 °C.
